Source: the supplement of paper PMC10307832

Compound: CCN(CCO)CCCC(C)Nc1ccnc2cc(Cl)ccc12 [Hydroxychloroquine] + Cc1cc(Nc2cc(N3CCN(C)CC3)nc(Sc3ccc(NC(=O)C4CC4)cc3)n2)n[nH]1 [Tozasertib] (partner 0.1 µM)
Experiment: relative viability (nuclei count vs DMSO), 5 days (fraction); higher = more cells survive
In short: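 Relative viability was taken as the ratio of nuclei in treated wells to nuclei in vehicle wells. Lung cancer cell lines in 1536-well plates received compounds by pin tool one day after seeding, either one drug alone or a fixed anchor-drug dose plus five library-drug doses (not always all listed) in √10 steps. Nuclei were counted on 4× images after 5 days of treatment, and values are medians of duplicate plates.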

Cell Line	relative viability (first compound 0.5 µM)	relative viability (first compound 1.581 µM)	relative viability (first compound 5 µM)	relative viability (first compound 15.81 µM)	relative viability (first compound 50 µM)
NCI-H650	0.736	0.692	0.681	0.763	0.708
NCI-H661	0.358	0.32	0.355	0.397	0.349
NCI-H727	0.646	0.509	0.597	0.561	0.593
NCI-H838	0.234	0.241	0.23	0.281	0.281
NCI-H1355	0.616	0.493	0.513	0.557	0.508
NCI-H1395	0.74	0.717	0.73	0.824	0.723
NCI-H1437	0.395	0.42	0.426	0.438	0.427
NCI-H1648		0.498	0.684	0.486	0.412
NCI-H1650	0.466	0.318	0.483	0.419	0.346
NCI-H1651	0.845	0.62	0.762	0.65	0.714
NCI-H1666	0.612	0.557	0.658	0.636	0.552
NCI-H1734	0.276	0.297	0.274	0.245	0.31
NCI-H1755	0.672	0.548	0.569	0.656	0.587
NCI-H1793	0.521	0.266	0.268	0.366	0.308
NCI-H1915	0.425	0.411	0.428	0.464	0.439
NCI-H1944	0.254	0.249	0.232	0.264	0.271
NCI-H1975	0.84	0.695	0.856	0.858	0.847
NCI-H1993	0.514	0.648	0.571	0.569	0.592

Cell Line	relative viability (first compound 0.5 µM)	relative viability (first compound 1.581 µM)	relative viability (first compound 5 µM)	relative viability (first compound 15.81 µM)	relative viability (first compound 50 µM)
NCI-H2009	0.819	0.745	0.784	0.739	0.726
NCI-H2023	0.35	0.339	0.344	0.36	0.36
NCI-H2085	0.858	0.828	0.799	0.813	0.884
NCI-H2087	0.265	0.22	0.317	0.261	0.284
NCI-H2126	0.821	0.77	0.836	0.887	0.949
NCI-H2170	0.721	0.751	0.67	0.813	0.728
NCI-H2228	0.281	0.201	0.285	0.259	0.321
NCI-H2342	0.493	0.467	0.439	0.508	0.627
NCI-H2347	0.553	0.455	0.664	0.402	0.469
NCI-H2405	0.769	0.691	0.756	0.707	0.728
NCI-H3122	0.434	0.368	0.397	0.456	0.505
PC-3 [JPC-3]	0.859	0.959	0.973	0.948	0.901
PC-14	0.58	0.537	0.54	0.544	0.55
RERF-LC-KJ	0.452	0.523	0.541	0.487	0.478
SK-LU-1	0.367	0.339	0.325	0.342	0.323
SK-MES-1	1.06	0.943	1.02	1.02	0.94
SW 1573	0.217	0.203	0.167	0.188	0.147
UMC-11	0.191	0.188	0.217	0.393	0.196
